Patent US20240335395A1, “COMPOSITIONS AND METHODS FOR PREVENTING AND/OR TREATING DISEASE ASSOCIATED WITH IL-23 EXPRESSION” (ALLSPIM, priority 2021, published 2024)

Tests used:
[1] = system: IL-6; assay: MSU-induced IL-6 in knee joint tissue (multiplex microassay); format: in vivo, mouse; details: 2,4-D 100 mg/kg, CLC 1 mg/kg, DEX 0.5 mg/kg
Procedure: (§1) Mice (six per group) were treated with 2,4-D (100 mg/kg or 20 mg/kg, i.p.), CLC (1 mg/kg or 0.2 mg/kg, i.p.), DEX (0.5 mg/kg or 0.1 mg/kg, i.p.), or vehicle (20% polyoxyethylenesorbitan monooleate (Tween 80) plus PBS) 30 min before intra-articular stimulus with MSU (100 μg/10 μL, i.a.). Six mice with intra-articular injection with PBS alone served as a negative control.
(§2) Induction of MSU-Induced Knee Joint Inflammation. Male ICR (CD-1) mice (35-45 g, 10-12 weeks) were purchased from VitalRiver Inc (Beijing, China) and were kept in an animal care facility under controlled temperature of 21±1° C., humidity, and on a light/dark cycle, with ad libitum access to water and standard laboratory chow diet. Animal care and handling procedures were approved by the Animal Ethics Committee of GZUCM (Guangzhou University of Chinese Medicine). All efforts were made to minimize animal suffering and to reduce the number of animals used. Joint inflammation was induced by the intra-articular (i.a.) administration of MSU (200 μg/20 μl) into the right and left knee joints of mice under inhaled 3% isoflurane anesthesia. Control animals received an injection (i.a.) of sterile PBS (20 μL).
(§3) Cytokine Measurement. Mice were anesthetized and sacrificed. Knee joints were collected and frozen in liquid nitrogen. Samples were then homogenized in 500 μl of buffer containing protease inhibitors, centrifuged (3600 rpm, 4° C., 15 min) and supernatants were used to determine Th1/Th2/Th17 cytokine levels using a multiplex microassay (Qantibody® mouse TH17 Array 1 kit, Cat. No.: QAM-TH17-1; RayBiotech, Norcross, GA). Results were expressed as picograms (pg) of cytokine/mg of tissue.
(§4) Statistical Analysis. […] For in vitro experiments, microassays were performed in quadruplicate. p<0.05 was considered significant (*p<0.05, **p<0.01, ***p<0.001).

[2] = system: IBA1 positive macrophage/microglia; assay: Laser-induced CNV in rats, IBA-1 positive macrophages on RPE-choroid flat-mounts; format: in vivo, rat; details: intravitreous injection
Procedure: Animals. All experiments were performed in accordance with the European Communities Council Directive 86/609/EEC and approved by local ethical committees (#2541-2015110210279792 v3). Six- to eight-week-old male Long Evans rats from the Janvier Breeding Center (Le Genest-Saint-Isle, France) were used to create a rat model of choroidal neovascularization (CNV) used as a model of human wet macular degeneration. Laser-induced CNV. After anesthesia and dilation of the pupils, coverslips were positioned on the cornea as a contact glass. For rats, six or eight burns were performed 2 to 3 optic disc diameters away from the optic nerve with an Argon laser (532 nm) mounted on a slit lamp (175 mW, 0.1 s and 50 μm). Both eyes of animals received laser induction. The presence of a bubble witnessed the rupture of Bruch's membrane and confirmed a successful laser impact. Treatments. After laser photocoagulation, rats were divided into 3 treatment groups: —Intravitreous injection (IVT) of 2,4-D (identified as “new treatment”, New T), —IVT of vehicle (PBS), —IVT of triamcinolone acetonide (Kenacort® 40 mg/ml; TA) (n=12 rats per group). The IVT consisted of 5 μl injected with a 31G needle mounted on a micro-thin (100 μl) syringe posterior to the limbus, avoiding the lens. IVT was performed immediately after laser had been performed. […]

[3] = system: laser-induced choroidal neovascularization (CNV); assay: Laser-induced CNV in rats, fluorescein angiography leakage grading; format: in vivo, rat; details: 14 days, intravitreous injection
Procedure: Animals. All experiments were performed in accordance with the European Communities Council Directive 86/609/EEC and approved by local ethical committees (#2541-2015110210279792 v3). Six- to eight-week-old male Long Evans rats from the Janvier Breeding Center (Le Genest-Saint-Isle, France) were used to create a rat model of choroidal neovascularization (CNV) used as a model of human wet macular degeneration.
Laser-induced CNV. After anesthesia and dilation of the pupils, coverslips were positioned on the cornea as a contact glass. For rats, six or eight burns were performed 2 to 3 optic disc diameters away from the optic nerve with an Argon laser (532 nm) mounted on a slit lamp (175 mW, 0.1 s and 50 μm). Both eyes of animals received laser induction. The presence of a bubble witnessed the rupture of Bruch's membrane and confirmed a successful laser impact.
Treatments. After laser photocoagulation, rats were divided into 3 treatment groups: —Intravitreous injection (IVT) of 2,4-D (identified as “new treatment”, New T), —IVT of vehicle (PBS), —IVT of triamcinolone acetonide (Kenacort® 40 mg/ml; TA) (n=12 rats per group). The IVT consisted of 5 μl injected with a 31G needle mounted on a micro-thin (100 μl) syringe posterior to the limbus, avoiding the lens. IVT was performed immediately after laser had been performed. Animals were sacrificed at 7 days (n=6 per group- and at 16 days (n=6 per group).
Fluorescein angiography (FA). FA was performed 14 days after laser induction. […] Early and late phase angiograms were recorded 1-3 and 5-7 min respectively after fluorescein injection. […] Angiographic scores were established by 2 blinded observers according to the following criteria: grade 0, no hyper-fluorescence; grade 1, slight hyper-fluorescence with no increase in intensity nor in size; grade 2, hyper-fluorescence increasing in intensity but not in size; grade 3, hyper-fluorescence increasing both in intensity and size; grade 4, hyper-fluorescence size increase more than 2-diameter of the initial laser burn.

[4] = system: IL-10; assay: MSU-induced IL-10 in knee joint tissue (multiplex microassay); format: in vivo, mouse; details: 2,4-D 100 mg/kg, DEX 0.5 mg/kg
Procedure: as §1, §2, §3, §4

Q: How did the “decrease of IL-6 in knee joint tissue” value [1] turn out when COc1cc(O)c(OC)c(O)c1C(=O)/C=C/c1ccccc1 [2,4-D, 2′,4′-dihydroxy-3′,6′-dimethoxychalcone] was run?
A: The value was 7.6 fold.

Q: What about the “number of infiltrating IBA-1 positive macrophages in CNV” value [2] of the same molecule?
A: Its value is “important reduction”.

Q: And the “percentage of impact graded 0-1” value [3]?
A: The value was 68%.

Q: And the “percentage of impact in grade 3-4 (intense leakage)” value [3]?
A: Its value is 13%.

Q: And the “grading score of impacts compared to vehicle” value ([3]; Dunn's multiple comparison)?
A: Its value is “significantly reduced”.

Q: What about the “decrease of IL-10 in knee joint tissue” value [4] of the same molecule?
A: Its value is 1.7 fold.
